ChEMBL document CHEMBL1131350, “Design of novel tripeptides with macrophage migration-enhancing activity” (1998)
Peptide text beside a SMILES is read from it. * marks the point of attachment. Fmoc = O=C(OCC1c2ccccc2-c2ccccc21)*; Cbz = O=C(OCc1ccccc1)*; Boc = CC(C)(C)OC(=O)*

tested on: not listed separately; experiment: Macrophage migration-enhancing activity evaluated using rabbit alveolar macrophages at 1E-7M; format: functional, Oryctolagus cuniculus

Point of comparison: `NC(=O)[C@H](Cc1c[nH]cn1)NC(=O)[C@H](Cc1c[nH]c2ccccc12)NC(=O)[C@H](Cc1c[nH]c2ccccc12)NC(=O)OCc1ccccc1` (Cbz-Trp-Trp-His-NH2), MI 4. Against it:
- CC(C)C[C@H](NC(=O)OCc1ccccc1)C(=O)N[C@@H](Cc1ccccc1)C(=O)N[C@@H](Cc1c[nH]cn1)C(N)=O (Cbz-Leu-Phe-His-NH2) — the same, 4
- NC(=O)[C@H](Cc1c[nH]cn1)NC(=O)[C@H](Cc1ccccc1)NC(=O)[C@H](Cc1ccccc1)NC(=O)[C@H](Cc1ccccc1)NC(=O)OCc1ccccc1 (Cbz-FFFH-NH2) — higher, 15
- CC(C)(C)OC(=O)N[C@@H](Cc1ccccc1)C(=O)N[C@@H](Cc1ccccc1)C(=O)N[C@@H](Cc1c[nH]cn1)C(N)=O (Boc-Phe-Phe-His-NH2) — higher, 96
- O=C(N[C@@H](Cc1ccccc1)C(=O)N[C@@H](Cc1ccccc1)C(=O)N[C@@H](Cc1c[nH]cn1)C(=O)O)OCc1ccccc1 (Cbz-Phe-Phe-His-OH) — lower, -6
- NC(=O)[C@H](Cc1c[nH]cn1)NC(=O)[C@H](Cc1c[nH]c2ccccc12)NC(=O)[C@H](Cc1ccccc1)NC(=O)OCc1ccccc1 (Cbz-Phe-Trp-His-NH2) — higher, 7
- NC(=O)[C@H](Cc1ccccc1)NC(=O)[C@H](Cc1ccccc1)NC(=O)[C@H](Cc1c[nH]cn1)NC(=O)OCc1ccccc1 (Cbz-His-Phe-Phe-NH2) — lower, 1
- CC(=O)N[C@@H](Cc1ccccc1)C(=O)N[C@@H](Cc1ccccc1)C(=O)N[C@@H](Cc1c[nH]cn1)C(N)=O (Ac-Phe-Phe-His-NH2) — higher, 61
- NC(=O)[C@H](Cc1c[nH]cn1)NC(=O)[C@@H](Cc1ccccc1)NC(=O)[C@H](Cc1ccccc1)NC(=O)OCc1ccccc1 — lower, 0
- NC(=O)[C@H](Cc1c[nH]cn1)NC(=O)[C@H](Cc1ccccc1)NC(=O)[C@@H](Cc1ccccc1)NC(=O)OCc1ccccc1 — lower, 2
- CC(C)[C@H](NC(=O)OCc1ccccc1)C(=O)N[C@@H](Cc1ccccc1)C(=O)N[C@@H](Cc1c[nH]cn1)C(N)=O (Cbz-Val-Phe-His-NH2) — lower, 3
- NC(=O)[C@@H](Cc1c[nH]cn1)NC(=O)[C@H](Cc1ccccc1)NC(=O)[C@H](Cc1ccccc1)NC(=O)OCc1ccccc1 — lower, -1
- NC(=O)[C@H](Cc1c[nH]cn1)NC(=O)[C@H](Cc1ccccc1)NC(=O)[C@H](Cc1ccc(O)cc1)NC(=O)OCc1ccccc1 (Cbz-Tyr-Phe-His-NH2) — lower, -28
- NC(=O)[C@H](Cc1c[nH]cn1)NC(=O)[C@H](Cc1ccccc1)NC(=O)[C@H](Cc1c[nH]c2ccccc12)NC(=O)OCc1ccccc1 (Cbz-Trp-Phe-His-NH2) — higher, 14
- CC(C)C[C@H](NC(=O)[C@H](Cc1ccccc1)NC(=O)OCc1ccccc1)C(=O)N[C@@H](Cc1c[nH]cn1)C(N)=O (Cbz-Phe-Leu-His-NH2) — the same, 4
- NCCCC[C@H](NC(=O)[C@H](Cc1ccccc1)NC(=O)[C@H](Cc1ccccc1)NC(=O)OCc1ccccc1)C(N)=O (Cbz-Phe-Phe-Lys-NH2) — lower, 3
- NC(=O)[C@H](Cc1ccccc1)NC(=O)[C@H](Cc1c[nH]cn1)NC(=O)[C@H](Cc1ccccc1)NC(=O)OCc1ccccc1 (Cbz-Phe-His-Phe-NH2) — lower, -1
- NC(=O)[C@H](Cc1c[nH]cn1)NC(=O)[C@H](Cc1ccc(O)cc1)NC(=O)[C@H](Cc1ccccc1)NC(=O)OCc1ccccc1 (Cbz-Phe-Tyr-His-NH2) — lower, -23
- NC(=O)C(Cc1c[nH]cn1)NC(=O)[C@@H](Cc1ccccc1)NC(=O)OCc1ccccc1 (some centres undefined) — higher, 18
- CCOC(=O)[C@H](Cc1c[nH]cn1)NC(=O)[C@H](Cc1ccccc1)NC(=O)[C@H](Cc1ccccc1)NC(=O)OCc1ccccc1 (Cbz-Phe-Phe-His-OEt) — higher, 95
- NC(=O)[C@H](Cc1c[nH]cn1)NC(=O)[C@H](Cc1ccccc1)NC(=O)[C@H](Cc1ccccc1)NC(=O)OCC1c2ccccc2-c2ccccc21 (Fmoc-Phe-Phe-His-NH2) — higher, 122
- NC(=O)[C@H](Cc1c[nH]cn1)NC(=O)[C@H](Cc1ccccc1)NC(=O)[C@H](Cc1ccccc1)NC(=O)OCc1ccccc1 — higher, 94
- COC(=O)[C@H](Cc1c[nH]cn1)NC(=O)[C@H](Cc1ccccc1)NC(=O)[C@H](Cc1ccccc1)NC(=O)OCc1ccccc1 (Cbz-Phe-Phe-His-OMe) — higher, 97
- C[C@H](NC(=O)OCc1ccccc1)C(=O)N[C@@H](Cc1ccccc1)C(=O)N[C@@H](Cc1c[nH]cn1)C(N)=O (Cbz-Ala-Phe-His-NH2) — lower, 2
- N=C(N)NCCC[C@H](NC(=O)[C@H](Cc1ccccc1)NC(=O)[C@H](Cc1ccccc1)NC(=O)OCc1ccccc1)C(N)=O (Cbz-Phe-Phe-Arg-NH2) — higher, 8
- NC(=O)[C@H](Cc1c[nH]cn1)NC(=O)[C@H](Cc1ccc(O)cc1)NC(=O)[C@H](Cc1ccc(O)cc1)NC(=O)OCc1ccccc1 (Cbz-Tyr-Tyr-His-NH2) — lower, -25
- NC(=O)[C@H](Cc1c[nH]cn1)NC(=O)[C@H](Cc1ccccc1)NC(=O)[C@@H](N)Cc1ccccc1 (H-Phe-Phe-His-NH2) — higher, 7
- NC(=O)[C@H](Cc1c[nH]cn1)NC(=O)[C@H](Cc1ccccc1)NC(=O)[C@H](Cc1ccccc1)N1C(=O)c2ccccc2C1=O — lower, -1

species on record: Oryctolagus cuniculus; experiment: Macrophage migration-enhancing activity was evaluated using rabbit alveolar macrophages expressed as Migration Index (MI); format: functional

In the case of `Clc1ccc(C2=N[C@H](c3ccccc3)[C@H](c3ccccc3)N2)cc1`, the MI is reported as 140.
